Assay [1] deals with interaction between PD-1 and PD-L1 expressed on cell surfaces (Homo sapiens (Human), UniProt Q9NZQ7). The experiment in a line: Jurkat reporter gene cellular assay (Jurkat/NF-κB-luc/PD1 cells cocultured with Raji-PD-L1 cells, OKT-3 stimulation). The assay is classed as cell-based. The following applies: NF-κB-luc reporter activation fold, 6 hrs; read-out: Cell Activity EC50. Summed up:
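EC50 comes from non-linear regression of activation fold (compound reading over DMSO reading) against concentration. Read-out was luciferase signal 6 h after OKT-3-stimulated coculture of PD-1/NF-κB-luc Jurkat cells with PD-L1-expressing Raji cells, 5*10^4 cells each per well.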
A general note: In a reporter assay the amount or activity of a reporter protein is the signal.

In assay [2] the target is interaction between PD-1 and PD-L1 (Homo sapiens (Human), UniProt Q9NZQ7). Description: PD1-PDL1 HTRF binding activity test (Cisbio PD-1/PD-L1 binding assay kit). Particulars: read-out: PD1-PDL1 HTRF Binding Activity IC50. Background: In TR-FRET formats the signal depends on donor and acceptor labels being close together.

Bounds are passed on as bounds.

Chain of interaction between PD-1 and PD-L1 expressed on cell surfaces (Q9NZQ7 19-290): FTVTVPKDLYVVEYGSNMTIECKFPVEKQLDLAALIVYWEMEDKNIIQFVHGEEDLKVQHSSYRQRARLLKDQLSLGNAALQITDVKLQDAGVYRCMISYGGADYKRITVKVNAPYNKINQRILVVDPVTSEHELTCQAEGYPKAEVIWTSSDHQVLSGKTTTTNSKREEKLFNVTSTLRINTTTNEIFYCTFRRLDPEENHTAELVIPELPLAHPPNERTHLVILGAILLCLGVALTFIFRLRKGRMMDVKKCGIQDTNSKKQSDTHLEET
Chain of interaction between PD-1 and PD-L1 (Q9NZQ7 19-238): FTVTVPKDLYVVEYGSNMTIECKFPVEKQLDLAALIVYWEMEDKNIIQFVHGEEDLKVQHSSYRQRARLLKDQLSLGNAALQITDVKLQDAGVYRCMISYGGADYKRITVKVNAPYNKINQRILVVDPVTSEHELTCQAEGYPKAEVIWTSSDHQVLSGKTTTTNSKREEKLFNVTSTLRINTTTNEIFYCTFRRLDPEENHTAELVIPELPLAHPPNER

The term EC50 denotes the concentration at which the effect is half-maximal. Usually IC50 stands for the concentration that gives 50% inhibition. For `Cc1c(NC(=O)c2cc(C3CC3)c(CNC(CO)CO)cn2)cccc1-c1cccc(NC(=O)c2cc(C3CC3)c(CNC(CO)CO)cn2)c1C` [Example 92, N,N′-(2,2′-dimethyl-[1,1′-biphenyl]-3,3′-diyl)bis(4-cyclopropyl-5-(((1,3-dihydroxypropan-2-yl)amino)methyl)picolinamide)], the EC50 in assay [1] came out at 54.7 nM. For the same compound, in assay [2], the IC50 worked out at 0.87 nM.
The matching figures for `CC(=O)NCCNCc1cnc(C(=O)Nc2cccc(-c3cccc(NC(=O)c4cc(C5CC5)c(CNCCNC(C)=O)cn4)c3C)c2C)cc1C1CC1` [Example 93, N,N'-(2,2′-dimethyl-[1,1′-biphenyl]-3,3′-diyl)bis(5-(((2-acetamidoethyl)amino)methyl)-4-cyclopropylpicolinamide)]: 104 nM and 1.49 nM.
The corresponding values for `Cc1c(NC(=O)c2cc(C3CC3)c(CNCC3(O)CC3)cn2)cccc1-c1cccc(NC(=O)c2cc(C3CC3)c(CNCC3(O)CC3)cn2)c1C` [Example 94, N,N'-(2,2′-dimethyl-[1,1′-biphenyl]-3,3′-diyl)bis(4-cyclopropyl-5-((((1-hydroxycyclopropyl)methyl)amino)methyl)picolinamide)] are 566 nM and 4.75 nM.
The matching figures for `Cc1c(NC(=O)c2cc(C3CC3)c(CN[C@H](C)CO)cn2)cccc1-c1cccc(NC(=O)c2cc(C3CC3)c(CN[C@H](C)CO)cn2)c1C` [Example 95, N,N'-(2,2′-dimethyl-[1,1′-biphenyl]-3,3′-diyl)bis(4-cyclopropyl-5-((((R)-1-hydroxypropan-2-yl)amino)methyl)picolinamide)]: 125 nM and 2.02 nM.
As to `Cc1c(NC(=O)c2cc(C3CC3)c(CN[C@@H](C)CO)cn2)cccc1-c1cccc(NC(=O)c2cc(C3CC3)c(CN[C@@H](C)CO)cn2)c1C` [Example 96, N,N'-(2,2′-dimethyl-[1,1′-biphenyl]-3,3′-diyl)bis(4-cyclopropyl-5-((((S)-1-hydroxypropan-2-yl)amino)methyl)picolinamide)], in assay [1], the EC50 was found to be 87 nM. In addition, the IC50 in assay [2] was 1.44 nM.
On to `Cc1c(NC(=O)c2cc(C3CC3)c(CNC3CCC[C@@H]3O)cn2)cccc1-c1cccc(NC(=O)c2cc(C3CC3)c(CN[C@H]3CCC[C@@H]3O)cn2)c1C` (some centres unmarked) [Example 97], for which the EC50 in assay [1] was 221 nM. Also, the IC50 in assay [2] was 3.38 nM.
The corresponding values for `Cc1c(NC(=O)c2cc(C3CC3)c(CN3CC(O)C3)cn2)cccc1-c1cccc(NC(=O)c2cc(C3CC3)c(CN3CC(O)C3)cn2)c1C` [Example 98, N,N′-(2,2′-dimethyl-[1,1′-biphenyl]-3,3′-diyl)bis(4-cyclopropyl-5-((3-hydroxyazetidin-1-yl)methyl)picolinamide)] are 241 nM and 3.78 nM.
As to `Cc1c(NC(=O)c2cc(C3CC3)c(CN3CC(C)(O)C3)cn2)cccc1-c1cccc(NC(=O)c2cc(C3CC3)c(CN3CC(C)(O)C3)cn2)c1C` [Example 99, N,N′-(2,2′-dimethyl-[1,1′-biphenyl]-3,3′-diyl)bis(4-cyclopropyl-5-((3-hydroxy-3-methylazetidin-1-yl)methyl)picolinamide)], the EC50 in assay [1] is 260 nM. Besides, in assay [2], the IC50 came out at 1.43 nM.
The corresponding values for `Cc1c(NC(=O)c2cc(C3CC3)c(CN3CC[C@@H](O)C3)cn2)cccc1-c1cccc(NC(=O)c2cc(C3CC3)c(CN3CC[C@@H](O)C3)cn2)c1C` [Example 100] are 122 nM and 1.51 nM.
The corresponding values for `Cc1c(NC(=O)c2cc(C3CC3)c(CN3CC[C@H](O)C3)cn2)cccc1-c1cccc(NC(=O)c2cc(C3CC3)c(CN3CC[C@H](O)C3)cn2)c1C` [Example 101, N,N′-(2,2′-dimethyl-[1,1′-biphenyl]-3,3′-diyl)bis(4-cyclopropyl-5-(((S)-3-hydroxypyrrolidin-1-yl)methyl)picolinamide)] are 267 nM and 1.09 nM.
On to `Cc1c(NC(=O)c2cc(C3CC3)c(CN3CCC(O)CC3)cn2)cccc1-c1cccc(NC(=O)c2cc(C3CC3)c(CN3CCC(O)CC3)cn2)c1C` [Example 102, N,N′-(2,2′-dimethyl-[1,1′-biphenyl]-3,3′-diyl)bis(4-cyclopropyl-5-((4-hydroxypiperidin-1-yl)methyl)picolinamide)], for which the EC50 in assay [1] was found to be 194 nM. Also, the IC50 in assay [2] amounted to 3.61 nM.
The matching figures for `Cc1c(NC(=O)c2cc(C3CC3)c(CNC3CC(O)C3)cn2)cccc1-c1cccc(NC(=O)c2cc(C3CC3)c(CN[C@H]3C[C@@H](O)C3)cn2)c1C` (some centres unmarked) [Example 103, N,N′-(2,2′-dimethyl-[1,1′-biphenyl]-3,3′-diyl)bis(4-cyclopropyl-5-((((1s,3s)-3-hydroxycyclobutyl)amino)methyl)picolinamide)]: 206 nM and 4.11 nM.
For the compound `Cc1c(NC(=O)c2cc(C3CC3)c(CN[C@H](CO)C(=O)O)cn2)cccc1-c1cccc(NC(=O)c2cc(C3CC3)c(CN[C@H](CO)C(=O)O)cn2)c1C` [Example 105], the EC50 in assay [1] came to 14.1 nM. The IC50 in assay [2] is 0.27 nM.
The corresponding values for `CCOC(=O)[C@@H](CO)NCc1cnc(C(=O)Nc2cccc(-c3cccc(NC(=O)c4cc(C5CC5)c(CN[C@H](CO)C(=O)OCC)cn4)c3C)c2C)cc1C1CC1` [Example 106, diethyl 2,2′-((((((2,2′-dimethyl-[1,1′-biphenyl]-3,3′-diyl)bis(azanediyl))bis (carbonyl))bis(4-cyclopropylpyridine-6,3-diyl))bis(methylene))bis(azanediyl)) (2R,2′R)-bis(3-hydroxypropanoate)] are 1260 nM and 22.5 nM.
The corresponding values for `CCOC(=O)[C@H](CO)NCc1cnc(C(=O)Nc2cccc(-c3cccc(NC(=O)c4cc(C5CC5)c(CN[C@@H](CO)C(=O)OCC)cn4)c3C)c2C)cc1C1CC1` [Example 107, diethyl 2,2′-((((((2,2′-dimethyl-[1,1′-biphenyl]-3,3′-diyl)bis(azanediyl))bis(carbonyl))bis(4-cyclopropylpyridine-6,3-diyl))bis (methylene))bis(azanediyl))(2S,2′S)-bis (3-hydroxypropanoate)] are 753 nM and 15.2 nM.
In the case of `Cc1c(NC(=O)c2cc(C3CC3)c(CN[C@@H](CO)C(=O)O)cn2)cccc1-c1cccc(NC(=O)c2cc(C3CC3)c(CN[C@@H](CO)C(=O)O)cn2)c1C` [Example 108, (2S,2′S)-2,2′-((((((2,2′-dimethyl-[1,1′-biphenyl]-3,3′-diyl)bis(azanediyl))bis(carbonyl))bis(4-cyclopropylpyridine-6,3-diyl))bis(methylene))bis(azanediyl)) bis(3-hydroxypropanoic acid)], the EC50 in assay [1] was 42.3 nM. Moreover, the IC50 in assay [2] was determined as 0.84 nM.
The corresponding values for `COC(=O)[C@@H]1CCCCN1Cc1cnc(C(=O)Nc2cccc(-c3cccc(NC(=O)c4cc(C5CC5)c(CN5CCCC[C@H]5C(=O)OC)cn4)c3C)c2C)cc1C1CC1` [Example 109, dimethyl 1,1′-(((((2,2′-dimethyl-[1,1′-biphenyl]-3,3′-diyl)bis(azanediyl))bis(carbonyl))bis(4-cyclopropylpyridine-6,3-diyl))bis(methylene))(2S,2′S)-bis (piperidine-2-carboxylate)] are more than 10000 nM and 375 nM.
Take `Cc1c(NC(=O)c2cc(C3CC3)c(CN3CCCC[C@H]3C(=O)O)cn2)cccc1-c1cccc(NC(=O)c2cc(C3CC3)c(CN3CCCC[C@H]3C(=O)O)cn2)c1C` [Example 110, (2S,2′S)-1,1′-(((((2,2′-dimethyl-[1,1′-biphenyl]-3,3′-diyl)bis(azanediyl))bis (carbonyl))bis(4-cyclopropylpyridine-6,3-diyl))bis(methylene))bis(piperidine-2-carboxylic acid)]: the EC50 in assay [1] was found to be 51 nM. The IC50 in assay [2] was 0.67 nM.
The matching figures for `CCOC(=O)[C@@H](NCc1cnc(C(=O)Nc2cccc(-c3cccc(NC(=O)c4cc(C5CC5)c(CN[C@H](C(=O)OCC)[C@@H](C)O)cn4)c3C)c2C)cc1C1CC1)[C@@H](C)O` [Example 111, diethyl 2,2′-((((((2,2′-dimethyl-[1,1′-biphenyl]-3,3′-diyl)bis (azanediyl))bis(carbonyl))bis (4-cyclopropylpyridine-6,3-diyl))bis(methylene))bis(azanediyl)) (2S,2′S,3R,3′R)-bis(3-hydroxybutanoate)]: 5950 nM and 79.4 nM.
For the compound `Cc1c(NC(=O)c2cc(C3CC3)c(CN[C@H](C(=O)O)[C@@H](C)O)cn2)cccc1-c1cccc(NC(=O)c2cc(C3CC3)c(CN[C@H](C(=O)O)[C@@H](C)O)cn2)c1C` [Example 112, (2S,2′S,3R,3′R)-2,2′-((((((2,2′-dimethyl-[1,1′-biphenyl1]-3,3′-diyl)bis(azanediyl))bis(carbonyl))bis(4-cyclopropylpyridine-6,3-diyl))bis(methylene))bis(azanediyl))bis(3-hydroxybutanoic acid)], in assay [1], the concentration for a half-maximal effect (EC50) came to 34.6 nM. In addition, the IC50 in assay [2] worked out at 1.02 nM.
The matching figures for `Cc1c(NC(=O)c2cc(C3CC3)c(CN[C@H]3CCOC3=O)cn2)cccc1-c1cccc(NC(=O)c2cc(C3CC3)c(CN[C@H]3CCOC3=O)cn2)c1C` [Example 113]: 979 nM and 6.77 nM.
Turning to `Cc1c(NC(=O)c2cc(C3CC3)c(CN[C@@H](CCO)C(=O)O)cn2)cccc1-c1cccc(NC(=O)c2cc(C3CC3)c(CN[C@@H](CCO)C(=O)O)cn2)c1C` [Example 114, (2S,2′S)-2,2′-((((((2,2′-dimethyl-[1,1′-biphenyl]-3,3′-diyl)bis(azanediyl))bis(carbonyl))bis (4-cyclopropylpyridine-6,3-diyl))bis (methylene))bis(azanediyl))bis(4-hydroxybutanoic acid)], the concentration giving a half-maximal response (EC50) in assay [1] came to 89 nM. In assay [2], the IC50 stood at 5.2 nM.

Source of the values: patent US11459339B2, “Biaryl derivative, preparation method thereof and pharmaceutical application thereof” (Abbisko Therapeutics Co., Ltd., priority 2018, dated 2022).
